Measurements: patent US20260232643A1, “METHODS OF TREATING SOLID TUMORS WITH MITOGEN ACTIVATED PROTEIN KINASE (MAPK) PATHWAY ALTERATIONS” (Jazz Pharmaceuticals Ireland Limited, priority 2023, published 2026)
Positions count from the first letter of the chain named. Where “and” joins values, the source holds several entries; their conditions need not be identical. Equal values may be shown once. Read-outs that look alike come from different tables or passages of the source.

What was measured:
ARAF WT = biological target: T1, ARAF WT (Homo sapiens, UniProt P10398); test: PanQinase flash plate-based kinase assay
T1 sequence (P10398 1-606): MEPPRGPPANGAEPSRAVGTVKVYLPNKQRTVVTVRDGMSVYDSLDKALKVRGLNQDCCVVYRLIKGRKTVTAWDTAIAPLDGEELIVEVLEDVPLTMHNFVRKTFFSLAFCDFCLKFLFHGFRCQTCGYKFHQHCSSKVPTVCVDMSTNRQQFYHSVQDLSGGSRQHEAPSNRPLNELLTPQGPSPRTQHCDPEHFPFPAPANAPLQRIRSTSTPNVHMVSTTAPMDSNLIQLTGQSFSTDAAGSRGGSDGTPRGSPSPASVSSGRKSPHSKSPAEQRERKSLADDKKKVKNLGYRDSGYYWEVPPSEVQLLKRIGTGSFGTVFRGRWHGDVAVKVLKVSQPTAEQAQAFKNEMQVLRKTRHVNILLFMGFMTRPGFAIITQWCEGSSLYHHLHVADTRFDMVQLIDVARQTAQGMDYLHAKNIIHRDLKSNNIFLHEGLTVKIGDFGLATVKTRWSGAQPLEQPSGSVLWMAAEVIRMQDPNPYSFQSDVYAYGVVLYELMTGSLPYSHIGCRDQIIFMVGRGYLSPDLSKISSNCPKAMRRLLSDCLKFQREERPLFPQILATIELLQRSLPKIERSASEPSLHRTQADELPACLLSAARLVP

ARAF G377R = biological target: T2, ARAF G377R (Homo sapiens, UniProt P10398, G377R); test: PanQinase flash plate-based kinase assay
T2 sequence (P10398 1-606 G377R): T1 sequence (P10398 1-606) with G377R

ARAF del 347_348 = biological target: T3, ARAF del 347_348 (Homo sapiens, UniProt P10398, DEL347-348); test: PanQinase flash plate-based kinase assay
T3 sequence (P10398 with tags, fused parts or gaps DEL347-348): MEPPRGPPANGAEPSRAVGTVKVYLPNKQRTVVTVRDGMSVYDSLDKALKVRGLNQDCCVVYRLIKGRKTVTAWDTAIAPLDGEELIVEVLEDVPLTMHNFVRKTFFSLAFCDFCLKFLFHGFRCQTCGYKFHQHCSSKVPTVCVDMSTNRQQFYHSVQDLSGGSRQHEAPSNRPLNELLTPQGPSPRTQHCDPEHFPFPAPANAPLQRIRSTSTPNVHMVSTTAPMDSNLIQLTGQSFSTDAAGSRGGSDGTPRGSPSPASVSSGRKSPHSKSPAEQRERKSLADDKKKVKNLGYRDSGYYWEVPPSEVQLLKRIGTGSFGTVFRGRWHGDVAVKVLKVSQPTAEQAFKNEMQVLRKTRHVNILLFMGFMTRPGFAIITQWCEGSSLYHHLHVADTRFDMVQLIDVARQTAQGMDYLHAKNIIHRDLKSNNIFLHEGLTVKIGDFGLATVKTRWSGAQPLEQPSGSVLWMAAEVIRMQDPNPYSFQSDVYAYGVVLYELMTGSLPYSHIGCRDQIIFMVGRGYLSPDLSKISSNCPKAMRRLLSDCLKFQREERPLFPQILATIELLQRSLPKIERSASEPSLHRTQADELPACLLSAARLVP

ARAF del 347_348 G387D = biological target: T4, ARAF del 347_348 G387D (Homo sapiens, UniProt P10398, DEL347-348/G387D); test: PanQinase flash plate-based kinase assay
T4 sequence (P10398 with tags, fused parts or gaps DEL347-348/G387D): T3 sequence (P10398 with tags, fused parts or gaps DEL347-348) with G385D

BRAF WT = BRAF WT (Homo sapiens, UniProt P15056); test: PanQinase flash plate-based kinase assay
BRAF WT, sequence (P15056 whole entry): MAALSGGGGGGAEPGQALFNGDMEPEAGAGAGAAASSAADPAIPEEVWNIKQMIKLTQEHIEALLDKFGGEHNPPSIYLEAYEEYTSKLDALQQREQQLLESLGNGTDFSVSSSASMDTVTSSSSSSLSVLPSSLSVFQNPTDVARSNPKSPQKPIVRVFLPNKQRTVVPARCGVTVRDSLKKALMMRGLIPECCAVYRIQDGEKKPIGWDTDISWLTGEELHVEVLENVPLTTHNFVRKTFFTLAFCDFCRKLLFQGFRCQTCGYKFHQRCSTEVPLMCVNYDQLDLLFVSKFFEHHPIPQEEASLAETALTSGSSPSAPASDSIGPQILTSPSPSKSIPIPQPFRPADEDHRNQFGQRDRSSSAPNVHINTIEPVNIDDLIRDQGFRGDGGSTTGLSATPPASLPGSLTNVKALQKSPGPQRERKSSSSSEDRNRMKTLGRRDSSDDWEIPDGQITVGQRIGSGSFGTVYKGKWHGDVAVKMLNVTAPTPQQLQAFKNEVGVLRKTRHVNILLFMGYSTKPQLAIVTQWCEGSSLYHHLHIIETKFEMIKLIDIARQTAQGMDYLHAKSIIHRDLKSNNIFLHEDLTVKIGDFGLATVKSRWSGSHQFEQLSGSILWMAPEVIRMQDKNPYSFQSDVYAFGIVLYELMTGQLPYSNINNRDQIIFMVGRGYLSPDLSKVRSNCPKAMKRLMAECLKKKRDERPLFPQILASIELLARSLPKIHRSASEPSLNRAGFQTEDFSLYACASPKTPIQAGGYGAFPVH

BRAF V600E = BRAF V600E (Homo sapiens, UniProt P15056, V600E); test: PanQinase flash plate-based kinase assay
BRAF V600E, sequence (P15056 whole entry V600E): as the sequence (P15056 whole entry) above, with V600E counted along it

CRAF WT = CRAF WT (Homo sapiens, UniProt P04049, Y340D/Y341D); test: PanQinase flash plate-based kinase assay
CRAF WT, sequence (P04049 307-648 Y340D/Y341D): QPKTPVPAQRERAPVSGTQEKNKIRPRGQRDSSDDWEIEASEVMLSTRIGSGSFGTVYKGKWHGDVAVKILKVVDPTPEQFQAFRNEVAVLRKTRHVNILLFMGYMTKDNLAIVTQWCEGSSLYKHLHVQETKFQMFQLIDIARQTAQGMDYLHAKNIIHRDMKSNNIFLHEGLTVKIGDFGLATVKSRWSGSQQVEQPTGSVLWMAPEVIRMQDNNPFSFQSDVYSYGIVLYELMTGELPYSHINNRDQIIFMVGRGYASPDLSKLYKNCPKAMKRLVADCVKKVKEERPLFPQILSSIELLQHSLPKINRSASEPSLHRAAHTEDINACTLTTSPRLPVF

Sprague Dawley rats = details: 0, 10, 20, or 45 mg/kg/day once daily via oral gavage
Method: (§1) Compound I was evaluated in GLP-compliant 28-day oral toxicity studies in 2 preclinical species, Sprague Dawley rats and beagle dogs. In the rat 28-day study, Compound I was administered at 0, 10, 20, or 45 mg/kg/day once daily via oral gavage. […] In the dog 28-day study, Compound I was administered at 0, 3.75, 7.5, or 15 mg/kg/day once daily via oral gavage.

beagle dogs = details: 0, 3.75, 7.5, or 15 mg/kg/day once daily via oral gavage
Method: as §1

[1] = system: RAS (NRAS and KRAS) and RAF (BRAF Class 2/3) mutation driven colorectal cancer, non-small cell lung cancer, melanoma, and ovarian cancer xenografts; test: Tumor growth inhibition in xenograft mice models; type: in vivo; details: 10 mg/kg BID, 30 mg/kg BID, 30 mg/kg QD, 100 mg/kg QD, FIGS. 1A-E
Method: Vehicle was administered BID as a control.
The effect of Compound I in tumor growth inhibition was evaluated in xenograft mice models carrying pathogenic RAS (NRAS and KRAS) and RAF (BRAF Class 2/3) mutation driven colorectal cancer, non-small cell lung cancer, melanoma, and ovarian cancer.

[2] = system: metastatic NRASQ61 mutated melanoma; type: in vivo, human
Method: This is a phase 1 study of Compound I in participants with advanced or metastatic solid tumors harboring alterations in the MAPK pathway. The study comprises 2 parts: dose exploration (Part A) and expansion (Part B).
Compound I (i.e., (S)-5-((3-(4-(4-fluorophenyl)-1H-imidazol-2-yl) chroman-6-yl)oxy)-3,4-dihydro-1,8-naphthyridin-2 (1H)-one) is orally administered to participants BID in a capsule formulation with unit dose strengths of 10 mg or 25 mg, taken approximately 12 hours apart in the morning and in the evening. Specifically, in Part A, Compound I is administered as a single dose on Cycle 1 Day 1, with no doses administered on Days 2 and 3 before proceeding with BID dosing on Day 4 and after.
Tumor response to therapy will be assessed by the investigator using RECIST v1.1. Tumor assessments will be made by CT/MRI/PE at Screening, on Day 1 of Cycle 3 (Day 57), and every 2 cycles (56 days) thereafter until Dayl of Cycle 13, after which tumor assessments will be every 3 cycles (84 days) and at the End of Treatment Visit. Tumor assessments will include all known or suspected disease sites. Imaging must include chest, abdomen, and pelvis CT or MRI scans. Imaging will be performed on the abdomen, chest, pelvis, and the site of the primary tumor if it is located elsewhere.
Dosing regimens: To assess the safety and efficacy of Compound I in the cancer treatment, Compound I was orally administered to participants at 20 mg BID (“bis in die”, or “twice a day”), 30 mg BID, 50 mg BID, 50 mg QD (“quaque die”, “once a day”), 75 mg BID, or 100 mg QD for a period of time. Treatment-related adverse events (TRAE, Grade≤2 and Grade ≥3) were monitored and recorded. The efficacy of Compound I in treating cancer was determined by using radiologic tumor assessment as per RECIST v1.1 (e.g., PET-CT or MRI scans).

Compound	IC50 (ARAF WT) [nM]	IC50 (ARAF G377R) [nM]	IC50 (ARAF del 347_348) [nM]	IC50 (ARAF del 347_348 G387D) [nM]	IC50 (BRAF WT) [nM]	IC50 (BRAF V600E) [nM]	IC50 (CRAF WT) [nM]	findings in 28-day oral toxicity study (Sprague Dawley rats)	findings in 28-day oral toxicity study (beagle dogs)	tumor growth inhibition [1]	reduction in target lesions ([2]; after 2 months, n=1, metastatic NRASQ61 mutated melanoma, 50 mg QD) [%]	reduction in the target lesion ([2]; after 4 months (confirmation of PR), n=1, metastatic NRASQ61 mutated melanoma, 50 mg QD) [%]	PET avidity (PET/CT) ([2]; n=1, metastatic NRASQ61 mutated melanoma, 50 mg QD, FIG. 3)	tumor response per RECIST v1.1 ([2]; participant (n=1), metastatic NRASQ61 mutated melanoma, 50 mg QD oral)	predicted human Vss [L/kg]	predicted human CL (allometrically scaled) [mL/min/kg]	IC50 (ARAF WT; average IC50 ARAF WT, PanQinase flash plate assay, kinase dead MEK K97M substrate, 0.1-3 μM ATP)
Cc1ccc2c(Nc3cccc(Cl)c3F)nccc2c1NC(=O)c1csc2c(N)ncnc12 [Belvarafenib]	26	754	60.3	46.5	97.2	193	9.1										
Cc1ccc(NC(=O)c2ccnc(C(F)(F)F)c2)cc1-c1cc(OCCO)nc(N2CCOCC2)c1 [Naporafenib]	63.5	621	154	67.2	141	191	9.7										
O=C1CCc2c(Oc3ccc4c(c3)CC(c3ncc(-c5ccc(F)cc5)[nH]3)CO4)ccnc2N1 (stereo not drawn) [Compound I, 5-((3-(4-(4-fluorophenyl)-1H-imidazol-2-yl)chroman-6-yl)oxy)-3,4-dihydro-1,8-naphthyridin-2 (1H)-one]		142	68.3	20.4	40.6	40.2	2.3	No mortality, and no clinical signs, changes in body weight or food consumption, ophthalmology, clinical pathology or macroscopic findings of toxicological relevance were noted	No mortality, and no clinical signs, changes in body weight or food consumption, ophthalmology, ECG, clinical pathology, macroscopic or microscopic findings of toxicological relevance were noted	dose-dependent tumor growth inhibition effect	61	69	significant resolution of PET avidity	partial response (PR)	0.77	1.2	15.7 nM and 11.4 nM
